{"source": "patent US20100173888A1", "about": "(Pfizer Inc, priority 2008, published 2010)", "data": [{"molecular_target": "human recombinant H-PGDS (Homo sapiens, UniProt O60760)", "sequence (O60760 whole entry)": "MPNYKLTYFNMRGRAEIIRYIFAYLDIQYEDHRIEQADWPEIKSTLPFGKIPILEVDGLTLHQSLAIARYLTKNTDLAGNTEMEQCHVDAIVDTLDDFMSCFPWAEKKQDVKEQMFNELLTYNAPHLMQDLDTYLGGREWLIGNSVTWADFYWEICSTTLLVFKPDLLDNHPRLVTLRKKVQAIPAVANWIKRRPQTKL", "assay": "Fluorescence intensity h-PGDS TBA enzyme assay (PGH2 depletion, MDA/TBA fluorescence)", "assay_type": "biochemical", "conditions": "1:175,000 human recombinant H-PGDS, 42 second reaction, 3-fold serial dilutions, highest concentration typically 1 μM", "method": "Fluoresecence Intensity h-PGDSTBA Enzyme Assay\nProstaglandin D Synthase (PGDS) converts the substrate prostaglandin H2 (PGH2) to prostaglandin D2. The depletion of PGH2 was measured via an Fe(II) reduction of the remaining PGH2 to malondialdehyde (MDA) and 12-HHT. The enzyme assay is based on the quantitative formation of a fluorescent complex from the non-fluorescent compounds MDA and 2-thiobarbituric acid (TBA), substantially as described in U.S. patent application publication US-2004/152148 by Lombardt.\nThe enzyme assay (31 μls) contained 100 mM Tris base pH 8.0, 100 μM MgCl2, 0.1 mg/ml IgG Rabbit serum, 5.0 μM PGH2 (Cayman; ethanol solution, #17020), 2.5 mM L-Glutathione (Sigma; reduced form. #G4251), 1:175,000 human recombinant H-PGDS (from 1 mg/ml), 0.5% DMSO and inhibitor (varying concentration). Three μls of diluted inhibitor (dissolved in DMSO) was plated into a 384-well assay plate followed by a 25 μl addition of an enzyme solution containing h-PGDS, Tris, MgCl2, IgG and L-Glutathione. After preincubation of inhibitor and enzyme solution for 10 minutes at room temperature, the reaction was initiated with a 3 μl addition of substrate solution in 10 mM HCl. The reaction was terminated after 42 second by the addition (3 μl) of stop buffer containing FeCl2 and citric acid. After addition of 45.5 μls of TBA plates were heated for one hour in a 70° C. oven. Plates were cooled at room temperature overnight and read on a plate reader the next day with excitation @ 530 nm and emission @ 565 nm.\nIC50' s of inhibitors were calculated with a 4-parameter fit using 11 inhibitor concentrations in duplicate with 3-fold serial dilutions. Controls on each plate included no inhibitor (zero % effect) and an inhibitor 10-fold in excess of its' IC50 (100% effect). The highest inhibitor concentration tested was typically 1 μM.", "units": {"IC50": "µM"}, "values": [{"molecule": "CNC(=O)OC(C)(C)[C@H]1CC[C@H](NC(=O)c2ccc(-c3cccc(F)c3)nc2)CC1", "note": "[Example 229, 1-[trans-4-({[6-(3-Fluorophenyl)pyridin-3-yl]carbonyl}amino)cyclohexyl]-1-methylethyl methylcarbamate]", "IC50": 0.0025}, {"molecule": "N#CC1(C(=O)N2CCOCC2)CCCC(NC(=O)c2ccc(-c3cccc(F)c3)nc2)C1", "note": "(stereo not shown) [Example 265, N-[3-Cyano-3-(morpholin-4-ylcarbonyl)cyclohexyl]-6-(3-fluorophenyl)nicotinamide]", "IC50": 0.0028}, {"molecule": "CN1CCC(NC(=O)[C@@H]2CC[C@H](NC(=O)c3ccc(-c4cccc(F)c4)nc3)C2)CC1", "note": "[Example 174, 6-(3-Fluorophenyl)-N-{(1S,3R)-3-[(1-methylpiperidin-4-yl)carbamoyl]cyclopentyl}nicotinamide]", "IC50": 1.86}, {"molecule": "CN(C)C(=O)[C@@]1(C)CCC[C@@H](NC(=O)c2ccc(-c3cccc(F)c3)nc2)C1", "note": "(relative stereo) [Example 237, N-[(1R*,3S*)-3-(Dimethylcarbamoyl)-3-methylcyclohexyl]-6-(3-fluorophenyl)nicotinamide]", "IC50": 0.0051}, {"molecule": "COCCNC(=O)[C@H]1CC[C@@H](NC(=O)c2ccc(-c3cccc(F)c3)nc2)C1", "note": "[Example 185]", "IC50": 0.0254}, {"molecule": "COCCNC(=O)[C@H]1CC[C@H](NC(=O)c2ccc(-c3cccc(F)c3)nc2)CC1", "note": "[Example 113I, 6-(3-fluorophenyl)-N-{trans-4-[(2-methoxyethyl)carbamoyl]cyclohexyl}nicotinamide]", "IC50": 0.0105}, {"molecule": "O=C(N[C@H]1CC[C@@H](C(=O)N2CC[C@@H](F)C2)C1)c1ccc(-c2cccc(F)c2)nc1", "note": "[Example 161, 6-(3-fluorophenyl)-N-[(1S,3R)-3-{[(3R)-3-fluoropyrrolidin-1-yl]carbonyl}cyclopentyl]nicotinamide]", "IC50": 0.0041}, {"molecule": "CN1CCN(CC(=O)N[C@H]2CCC[C@H](NC(=O)c3ccc(-c4cccc(F)c4)nc3)C2)CC1", "note": "(relative stereo) [Example 247]", "IC50": 0.057}, {"molecule": "CN(C)CC(=O)N[C@H]1CC[C@@H](NC(=O)c2ccc(-c3cccc(F)c3)nc2)CC1", "note": "[Example 221, N-{cis-4-[(N,N-dimethylglycyl)amino]cyclohexyl}-6-(3-fluorophenyl)nicotinamide]", "IC50": 0.0527}, {"molecule": "CCC(O)CNC(=O)[C@H]1CCC[C@@H](NC(=O)c2ccc(-c3cccc(F)c3)nc2)C1", "note": "(stereo partly shown) [Example 197]", "IC50": 0.0102}, {"molecule": "C[C@H](CO)NC(=O)[C@@H]1CC[C@H](NC(=O)c2ccc(-c3cccc(F)c3)nc2)C1", "note": "[Example 164, 6-(3-Fluorophenyl)-N-{(1S,3R)-3-[(2-hydroxy-1-methylethyl)carbamoyl]cyclopentyl}nicotinamide]", "IC50": 0.0161}, {"molecule": "CC(C)(O)C[C@H]1CC[C@H](NC(=O)c2ccc(-c3cccc(F)c3)nc2)CC1", "note": "[Example 152, 6-(3-Fluorophenyl)-N-[4-(trans 2-hydroxy-2-methylpropyl)cyclohexyl]nicotinamide]", "IC50": 0.0022}, {"molecule": "CCN1CCN(C(=O)C2(C#N)CCCC(NC(=O)c3ccc(-c4cccc(F)c4)nc3)C2)CC1", "note": "(stereo not shown) [Example 264, N-{3-Cyano-3-[(4-ethylpiperazin-1-yl)carbonyl]cyclohexyl}-6-(3-fluorophenyl)nicotinamide]", "IC50": 0.0092}, {"molecule": "C[C@@H](N)C(=O)N[C@H]1CC[C@H](NC(=O)c2ccc(-c3cccc(F)c3)nc2)CC1", "note": "[Example 113Q, N-[trans-4-(D-alanylamino)cyclohexyl]-6-(3-fluorophenyl)nicotinamide]", "IC50": 0.0097}, {"molecule": "CCCOCC1(O)CCC(NC(=O)c2ccc(-c3cccc(F)c3)nc2)CC1", "note": "(stereo not shown) [Example 228, 6-(3-Fluorophenyl)-N-[4-hydroxy-4-(propoxymethyl)cyclohexyl]nicotinamide]", "IC50": 0.0175}, {"molecule": "O=C(N[C@H]1CC[C@H](CO)CC1)c1cnc(-c2cccc(F)c2)c(Cl)c1", "note": "[Example 114, 5-Chloro-6-(3-fluorophenyl)-N-[trans-4-(hydroxymethyl)cyclohexyl]nicotinamide]", "IC50": 0.00441}, {"molecule": "O=C(N[C@H]1CCC[C@@H](CN2CC(O)C2)C1)c1ccc(-c2cccc(F)c2)nc1", "note": "(stereo in doubt) [Example 256, 6-(3-Fluorophenyl)-N-{(1S,3R)-3-[(3-hydroxyazetidin-1-yl)methyl]cyclohexyl}nicotinamide]", "IC50": 0.0441}, {"molecule": "O=C(NC1CCCc2ccccc21)c1ccc(-c2ccccc2)nc1", "note": "(stereo not shown) [Example 120, 6-Phenyl-N-(1,2,3,4-tetrahydronaphthalen-1-yl)nicotinamide]", "IC50": 0.00177}, {"molecule": "6-(3-Fluorophenyl)-N-(cis-2-hydroxy-2,3-dihydro-1H-inden-1yl]nicotinamide [Example 130]", "IC50": 0.0152}, {"molecule": "O=C(N[C@@H]1CC[C@H](C(=O)N2CC[C@H](F)C2)C1)c1ccc(-c2cccc(F)c2)nc1", "note": "[Example 181, 6-(3-Fluorophenyl)-N-[(1R,3S)-3-{[(3S)-3-fluoropyrrolidin-1-yl]carbonyl}cyclopentyl]nicotinamide]", "IC50": 0.0058}, {"molecule": "O=C(CO)N[C@@H]1CCC[C@H](NC(=O)c2ccc(-c3cccc(F)c3)nc2)C1", "note": "(relative stereo) [Example 202]", "IC50": 0.0171}, {"molecule": "COCC(=O)NC[C@H]1CCC[C@@H](NC(=O)c2ccc(-c3cccc(F)c3)nc2)C1", "note": "(relative stereo) [Example 252]", "IC50": 0.0171}, {"molecule": "N[C@H]1CC[C@@H](NC(=O)c2ccc(-c3cccc(F)c3)nc2)CC1", "note": "[Example 155, N-(cis-4-Aminocyclohexyl)-6-(3-fluorophenyl)nicotinamide]", "IC50": 0.0978}, {"molecule": "C[C@@H](CO)NC(=O)[C@H]1CCC[C@@H](NC(=O)c2ccc(-c3cccc(F)c3)nc2)C1", "note": "[Example 194]", "IC50": 0.0147}, {"molecule": "O=C(N[C@H]1CC[C@@H](C(=O)N2CCC(CCO)CC2)C1)c1ccc(-c2cccc(F)c2)nc1", "note": "[Example 168, 6-(3-Fluorophenyl)-N-[(1S,3R)-3-{(4-(2-hydroxyethyl)piperidin-1-yl]carbonyl}cyclopentyl]nicotinamide]", "IC50": 0.0044}, {"molecule": "Cc1ccnn1CC(=O)N[C@H]1CC[C@H](NC(=O)c2ccc(-c3cccc(F)c3)nc2)CC1", "note": "[Example 113M, 6-(3-fluorophenyl)-N-(trans-4-{[(5-methyl-1H-pyrazol-1-yl)acetyl]amino}cyclohexyl)nicotinamide]", "IC50": 0.0076}, {"molecule": "O=C(N[C@H]1CCC[C@@H](NC(=O)N2CCOCC2)C1)c1ccc(-c2cccc(F)c2)nc1", "note": "(relative stereo) [Example 267]", "IC50": 0.011}, {"molecule": "COCC(=O)N[C@@H]1CCC[C@H](NC(=O)c2ccc(-c3cccc(F)c3)nc2)C1", "note": "(relative stereo) [Example 203, 6-(3-Fluorophenyl)-N-cis-[3-(2-methoxyacetylamino)cyclohexyl]nicotinamide]", "IC50": 0.0171}, {"molecule": "CC(C)(O)C(=O)N[C@H]1CC[C@@H](NC(=O)c2ccc(-c3cccc(F)c3)nc2)CC1", "note": "[Example 216, 6-(3-Fluorophenyl)-N-{cis-4-[(2-hydroxy-2-methylpropanoyl)amino]cyclohexyl}nicotinamide]", "IC50": 0.0318}, {"molecule": "CNC(=O)N[C@H]1CC[C@H](NC(=O)c2ccc(-c3cccc(F)c3)nc2)CC1", "note": "[Example 270]", "IC50": 0.0091}, {"molecule": "O=C(N[C@H]1CC[C@H](O)CC1)c1ccc(-c2cccc(F)c2)nc1", "note": "[Example 104, 6-(3-Fluorophenyl)-N-(trans-4-hydroxycyclohexyl)nicotinamide]", "IC50": 0.00229}, {"molecule": "O=C(NC1CCC(O)(C(F)(F)F)CC1)c1ccc(-c2cccc(F)c2)nc1", "note": "(mixture of isomers) [Example 151, 6-(3-Fluorophenyl)-N-(trans 4-hydroxy-4-trifluoromethylcyclohexyl)nicotinamide and 6-(3-Fluorophenyl)-N-(cis 4-hydroxy-4-trifluoromethylcyclohexyl)nicotinamide]", "IC50": 0.0103}, {"molecule": "CN1CCC(C(=O)N[C@H]2CC[C@@H](NC(=O)c3ccc(-c4cccc(F)c4)nc3)CC2)CC1", "note": "[Example 218, 6-(3-fluorophenyl)-N-(cis-4-{[(1-methylpiperidin-4-yl)carbonyl]amino}cyclohexyl)nicotinamide]", "IC50": 0.0797}, {"molecule": "CN(C)C(=O)[C@@H]1CCC[C@@H](NC(=O)c2ccc(-c3cccc(F)c3)nc2)C1", "note": "(relative stereo) [Example 238]", "IC50": 0.0471}, {"molecule": "CC(C)(N)C(=O)N[C@H]1CC[C@H](NC(=O)c2ccc(-c3cccc(F)c3)nc2)CC1", "note": "[Example 113K, 6-(3-fluorophenyl)-N-{trans-4-[(2-methylalanyl)amino]cyclohexyl}nicotinamide]", "IC50": 0.0096}, {"molecule": "O=C(N[C@H]1CCC[C@@H](C(=O)N2CCC(O)CC2)C1)c1ccc(-c2cccc(F)c2)nc1", "note": "[Example 260, 6-(3-Fluorophenyl)-N-{(1S,3R)-3-[(4-hydroxypiperidin-1-yl)carbonyl]cyclohexyl}nicotinamide]", "IC50": 0.0599}, {"molecule": "N[C@@H]1[C@H]2CN(C(=O)[C@H]3CC[C@H](NC(=O)c4ccc(-c5cccc(F)c5)nc4)CC3)C[C@@H]12", "note": "[Example 210, N-(trans-4-{[(1R,5S,6S)-6-Amino-3-azabicyclo[3.1.0]hex-3-yl]carbonyl}cyclohexyl)-6-(3-fluorophenyl)nicotinamide]", "IC50": 0.0096}]}]}
